Laboratory results taken from the supplement of paper PMC10307832.

Assays:
Test in all cases: relative viability (nuclei count vs DMSO), 5 days (fraction); higher = more cells survive
QS11 = compound: C1CC2=C(C1)C=C(C=C2)OC3=NC(=C4C(=N3)N(C=N4)CC5=CC=C(C=C5)C6=CC=CC=C6)N[C@@H](CC7=CC=CC=C7)CO [QS11]
How it was run: (§1)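 Nuclei counted with MetaXpress define viability as the ratio of treated to vehicle wells, given as a median across plates. The lung cancer cell lines were in 1536-well plates, pinned with five √10-spaced library-drug doses and imaged at 4× after 5 days and Hoechst staining. Plates passed with control CV below 25% and at least one doubling.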

AZ628 = compound: CC1=C(C=C(C=C1)NC(=O)C2=CC(=CC=C2)C(C)(C)C#N)NC3=CC4=C(C=C3)N=CN(C4=O)C [AZ628]
How it was run: as §1

Darinaparsin = compound: C[As](C)SC[C@H](NC(=O)CC[C@H](N)C(=O)O)C(=O)NCC(=O)O [Darinaparsin]
How it was run: as §1

AZ628 + Dasatinib = compound: CC1=C(C=C(C=C1)NC(=O)C2=CC(=CC=C2)C(C)(C)C#N)NC3=CC4=C(C=C3)N=CN(C4=O)C [AZ628] + Cc1nc(Nc2ncc(C(=O)Nc3c(C)cccc3Cl)s2)cc(N2CCN(CCO)CC2)n1 [Dasatinib] (partner 0.075 µM)
How it was run: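 Relative viability is defined as nuclei in treated wells over nuclei in vehicle wells. Duplicate plates were run and medians reported. Lung cancer cell lines in 1536-well plates were dosed by pin tool one day after seeding, with one drug or with a fixed anchor-drug dose plus five library-drug doses (not always all listed) in √10 steps, and nuclei were counted after 5 days.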

Row | Cell Line | relative viability (QS11; 0.08 µM) | relative viability (QS11; 0.253 µM) | relative viability (QS11; 0.8 µM) | relative viability (QS11; 2.53 µM) | relative viability (QS11; 8 µM) | relative viability (AZ628; 0.08 µM) | relative viability (AZ628; 0.253 µM) | relative viability (AZ628; 0.8 µM) | relative viability (AZ628; 2.53 µM) | relative viability (AZ628; 8 µM) | relative viability (Darinaparsin; 0.08 µM) | relative viability (Darinaparsin; 0.8 µM) | relative viability (Darinaparsin; 2.53 µM) | relative viability (Darinaparsin; 8 µM) | relative viability (AZ628 + Dasatinib; first compound 0.08 µM) | relative viability (AZ628 + Dasatinib; first compound 0.253 µM) | relative viability (AZ628 + Dasatinib; first compound 0.8 µM) | relative viability (AZ628 + Dasatinib; first compound 2.53 µM) | relative viability (AZ628 + Dasatinib; first compound 8 µM)
1 | COR-L23 | 1.02 | 1.01 | 0.827 | 0.918 | 0.648 | 1.08 | 1.1 | 0.957 | 1.12 | 0.614 | 1.11 | 0.995 | 0.96 | 1.37 | 0.499 | 0.465 | 0.493 | 0.447 | 0.347
2 | NCI-H1792 | 0.738 | 0.903 | 0.827 | 0.823 | 0.669 | 1.11 | 0.833 | 0.766 | 0.746 | 0.456 | 0.929 | 1.01 |  | 1.28 | 0.901 | 0.595 | 0.513 | 0.584 | 0.299
3 | HOP-62 | 1.06 | 1.09 | 0.867 | 0.922 | 0.88 | 1.07 | 1.07 | 0.937 | 1.09 | 0.573 | 1.07 | 1.08 | 0.95 | 1.08 | 0.501 | 0.608 | 0.477 | 0.478 | 0.317
4 | NCI-H1437 | 0.965 | 1.02 | 0.752 | 0.901 | 0.929 | 0.988 | 0.938 | 0.858 | 1.01 | 1.01 | 1.08 | 1.02 | 0.973 | 1.21 | 0.415 | 0.242 | 0.275 | 0.43 | 0.39
5 | HCC-366 | 1.01 | 1.01 |  | 0.98 | 0.447 | 1.01 | 0.952 | 0.884 | 0.955 | 0.876 | 1.01 | 1.07 | 1.03 | 1.32 | 0.663 | 0.653 | 0.492 | 0.55 | 0.406
6 | NCI-H1755 | 1.03 | 0.983 | 0.638 | 0.861 | 0.783 | 0.992 | 1.02 | 0.97 | 0.989 | 0.948 | 1.12 | 0.964 | 0.945 | 1.13 | 0.459 | 0.39 | 0.417 | 0.381 | 0.326
7 | NCI-H3122 | 1.03 | 1.07 |  | 1.11 | 0.972 | 0.956 | 0.736 | 0.648 | 0.598 | 0.403 | 1.06 | 1.01 | 1.01 | 1.16 | 0.819 | 0.39 | 0.15 | 0.212 | 0.176
8 | ChaGo-K-1 |  | 1 | 1.11 | 1.09 | 1.14 | 1.14 | 0.965 | 0.984 | 1.06 | 1.01 | 1.07 | 1.01 | 0.949 | 1.03 | 0.585 | 0.501 | 0.287 | 0.547 | 0.564
9 | SW 1573 | 1.04 | 0.961 | 1.01 | 0.896 | 0.655 | 0.984 | 0.863 | 0.696 | 0.812 | 0.564 | 1.21 | 0.971 | 0.966 | 1.19 | 0.535 | 0.422 | 0.381 | 0.434 | 0.302
10 | NCI-H1623 | 0.912 | 1.03 | 0.862 | 0.871 | 1.04 | 0.992 | 0.979 | 0.604 | 0.858 | 0.615 | 0.925 | 1.06 | 0.975 | 1.02 | 0.554 | 0.447 | 0.301 | 0.493 | 0.374
11 | NCI-H2085 | 0.946 | 0.953 | 0.968 | 1 | 1.09 | 1.08 | 0.98 | 1 | 1.03 | 0.882 | 0.998 | 0.985 | 0.958 | 0.999 | 0.255 | 0.274 | 0.252 | 0.239 | 0.237
12 | NCI-H727 | 0.989 | 0.975 | 0.867 | 0.935 | 0.752 | 0.777 | 0.531 | 0.389 | 0.543 | 0.294 | 0.895 | 0.884 | 0.986 | 1.04 | 0.318 | 0.3 | 0.306 | 0.23 | 0.264
13 | NCI-H2405 | 0.976 | 0.992 | 0.875 | 1.09 | 1.07 | 0.724 | 0.476 | 0.612 | 0.67 | 0.558 | 1.09 | 0.926 | 0.975 | 1.04 | 0.175 | 0.201 | 0.189 | 0.172 | 0.23
14 | NCI-H1666 | 0.935 | 0.984 | 0.776 | 0.793 | 0.667 | 0.965 | 0.826 | 0.885 | 0.813 | 0.901 | 1.04 | 0.948 | 1.24 | 1.05 | 0.812 | 0.733 | 0.669 | 0.665 | 0.668
15 | BEN | 0.821 | 1.03 | 1.13 | 1.1 | 1.25 | 1.11 | 0.838 | 0.899 | 1.01 | 0.843 | 1.08 | 1.03 | 0.92 | 1.3 | 0.348 | 0.304 | 0.301 | 0.508 | 0.309
16 | NCI-H1650 | 0.941 | 0.786 | 0.72 | 0.962 | 0.867 | 1.13 | 1.1 | 1.09 | 0.904 | 0.888 | 0.971 | 0.951 | 0.833 | 1.03 | 0.319 | 0.366 | 0.318 | 0.296 | 0.249
17 | HARA | 0.931 | 0.875 |  | 1.02 | 0.995 | 0.978 | 0.962 | 0.825 | 0.974 | 0.563 | 1.08 | 0.88 | 0.914 | 1.04 | 0.322 | 0.227 | 0.175 | 0.247 | 0.198
